Data taken from patent US9604974B2, “Compounds as modulator of JAK-STAT pathway, methods and applications thereof” (UNIVERSITY OF MYSORE, priority 2015, dated 2017).

Assays:
[1] = test system: SHP-1, SHPTP-2, PTP1B; experiment: Western blot of tyrosine phosphatase expression; type: cell-based, human; settings: HepG2, CIMO up to 4 hours
[2] = test system: Hep3B; experiment: MTT anti-proliferative assay, Hep3B; type: cell-based; settings: Homo sapiens
Procedure: The anti-proliferative activity of Formula I compounds are studied on HepG2 cells using MTT assay. Briefly, the cells (2.5×10^4/ml) are incubated in triplicate in a 96-well plate in the presence or absence of different concentrations of compounds in a final volume of 0.2 ml up to 72 hours at 37° C. Thereafter, 20 μl MTT solution (5 mg/ml in PBS) is added to each well. After 2 hours of incubation at 37° C., 0.1 ml lysis buffer (20% SDS, 50% dimethyl-formamide) is added; incubation is continued overnight at 37° C.; and the optical density (OD) at 570 nm is measured by Tecan plate reader.
Additionally, Compound 1 is tested on a panel of six cell lines including Hep3B, PLC/PRF5, AGS (gastric cancer cell line), DU145 (prostrate cancer cell line), MDA MB231 (breast cancer cell line) and CAL27 (head and neck cancer cell line) cells.

[3] = test system: phospho-STAT3, Ki-67, cleaved caspase-3; experiment: Immunohistochemistry of tumor tissues; type: in vivo, athymic nu/nu female mice; settings: treated vs. control group
Procedure: The effect of CIMO on constitutive phospho-STAT3 levels in HCC tumor tissues is further analyzed by immunohistochemical analysis. Solid tumors from control and drug-treated groups are fixed with 10% phosphate buffered formalin, processed, and embedded in paraffin. The sections are cut to 5 micron size and deparafinized in xylene, dehydrated in graded alcohol, and finally hydrated in water. Antigen retrieval is conducted by boiling the slide in 10 mM sodium citrate (pH 6.0) for about 30 minutes. Immunohistochemistry is conducted following the manufacturer's instructions (Dako LSAB Kit). Briefly, endogenous peroxidases are quenched with 3% hydrogen peroxide. Sections are incubated with primary antibodies for about 2 hours as follows: anti-pSTAT3, anti-Ki-67 and anti-caspase-3 (each at 1:100 dilutions). The slides are subsequently washed several times in TBS with 0.1% Tween-20 and are incubated with biotinylated linker for about 45 minutes, provided in the LSAB Kit according to the manufacturer's instructions. Immunoreactive species are detected using 3, 3′-diaminobenzidine tetrahydrochloride as a substrate. The sections are counterstained with Gill's hematoxylin and mounted under glass cover slips. Images are taken using an Olympus BX51 microscope (magnification, 40×). Quantitative analysis of immunohistochemistry images are done by visual scores between the control and treated images. In this expression quantitation technique, each image is divided into four parts and each part is individually quantitated for the biomarker expression. A cell scored as positive refers to the presence of brown staining (peroxidase) in any part of the studied tissue. A negative cell scored refers to no staining or weak staining.

[4] = test system: HepG2 cells; experiment: Matrigel invasion assay; type: cell-based, human; settings: 5 μMol/L CIMO, presence and absence of CXCL12
Procedure: FIG. 5 depicts inhibition of cell migration by Compound 1 (CIMO) [A]. 70 μl HepG2 cells (5×10^5/mL) are seeded into each compartments of culture insert and insert is removed after about 12 hours. Width of the wound is measured initially and incubation is carried out with and without CIMO (5 μM, for about 8 hours) and CXCL12 (100 ng/mL, for about 24 hours). [B] Inhibition of cell invasion by Compound 1 (CIMO). HepG2 (2×10^5) cells are seeded in the top chamber of BD BioCoat™ Matrigel™. After pre-incubation with or without 5 μMol/L CIMO for about 8 hours, transwell chambers are placed into the wells of a 24-well plate which contains either only basal medium or basal medium with CXCL12 (100 ng/mL) for about 24 hours. After incubation, the chambers are assessed for cell invasion by staining with crystal violet.
In case of the invasion assay, the said assay is performed wherein BD (Biocoat™ Matrigel™) Invasion chamber with 8 μm pores in the light-tight polyethylene terephthalate membrane is taken and is coated with a reconstituted basement membrane gel (BD Biosciences). 2×10^5 cells are suspended in serum-free DMEM and seeded into the Matrigel Transwell chambers. The cells are incubated with CIMO for about 8 hours. […] The invading cells are then counted in five randomly selected areas under microscopic observation.

[5] = test system: HepG2 cells; experiment: CXCL12-induced wound migration assay; type: cell-based, human; settings: 5 μM CIMO, presence and absence of CXCL12, versus controls
Procedure: STAT3 targeted gene products are known to be involved in cancer cell migration. FIG. 5A interprets the movement of cancer cells in the presence and absence of CIMO and C—X—C motif chemokine 12 (CXCL12) protein. CXCL12 is a chemokine which essentially stimulates the swift migration of cancer cells. An IBIDI culture insert (IBIDI GmbH) is developed with two reservoirs separated by a 500 μm thick wall created by a culture insert in a 35 mm petri dish. 70 μl of HepG2 cells (5×10^5 cells/ml) are added into the two reservoirs of the same insert and incubated at about 37° C. After 12 hours, the insert is gently removed by creating a gap of ˜500 μm. The cells are treated with about 5 μM CIMO for about 8 hours before being exposed to about 100 ng/mL CXCL12 for about 24 hours. Width of wound is measured at time zero and 24 hours of incubation with and without CIMO in the absence or presence of CXCL12. Graphs are plotted against the percentage of migration or distance the cells moved before and after treatment, normalized to control.

**Q.** Which “levels of SHP-1, SHPTP-2, PTP1B” value [1] does the source give for COc1ccc(C2CNC(c3cn(Cc4ccc(-c5ccccc5C#N)cc4)c4ccccc34)OC23CCCCC3)cc1 (stereo not shown) [Compound 1] here?
**A.** Its value is “no change”.

**Q.** What about the IC50 [2] of the same compound?
**A.** Its IC50 is 46.9 µM.

**Q.** What about the “constitutive STAT3 activation in tumor tissues” value [3] of the same compound?
**A.** Its value is “significantly inhibits”.

**Q.** And the “expression of Ki-67 in tumor tissues” value [3]?
**A.** Its value is “downregulated”.

**Q.** What about the “expression of cleaved caspase-3 in tumor tissues” value [3] of the same compound?
**A.** Its value is “significantly increased”.

**Q.** What about the “inhibition of HepG2 cells motility (invasion)” value [4] of the same compound?
**A.** Its value is “more than 50%”.

**Q.** And the “limitation of HepG2 cell migration” value [5]?
**A.** Its value is roughly 50%.
